Patent publication US20210085807A1, “METAL-BINDING PEPTIDE AND USE THEREOF” (The University of Tokyo, priority 2018, published 2021)

Assay: Adsorption on stent in plasma, fluorescence microscopy
Assay type: binding
Conditions: stent immersed in human plasma 37° C., 30 minutes, then 0.5 mM peptide or PEG-peptide conjugate solution 37° C.
Experimental: Next, in order to analyze the binding ability of the peptide of the present invention to a stent existing in plasma, whether or not the peptide of the present invention binds to a stent that has been allowed to come into contact with plasma was examined.
That is, a stent was immersed in human plasma (37° C., 30 minutes), and was then removed from the plasma. The stent was then immersed in each peptide solution (0.5 mM) and a PEG-peptide conjugate solution (0.5 mM) (37° C., 30 minutes). Thereafter, the stent was sufficiently rinsed with PBS, and was then observed under a fluorescence microscope.
FIG. 15 and FIG. 16 show the fluorescence microscopic images of the stents, and the observed fluorescence intensities are summarized in FIG. 17. The method of digitizing the fluorescence intensity is as described above.

binding to the surface of the stent after contact with human plasma: does not bind to a stent
Sequence: LTPHKHHKHLHA [YT07]
